Laboratory results: patent US20240108685A1, “ORAL LIPOSOMAL COMPOSITIONS” (priority 2021, published 2024)

Test system: 4T-1 cells of mammary cancer
Assay: Orthotopic 4T1 breast cancer model, lung metastases
Assay type: in vivo, BALB/c mice
Conditions: after 3 weeks
Excerpt: The objective of this study was to evaluate the capacity of a suspension of liposomal MTP-PE, prepared according to the invention and administered orally, to inhibit the development of pulmonary metastases from cancer of the mammary gland.
The experimental model consisted of using immunocompetent mice of the BALB/c strain and performing an orthotopic transplant of 4T-1 cells of mammary cancer of murine origin.
This orthotopic graft forms a tumor reproducing human breast cancer which disseminates and forms metastases in the lungs after 3 weeks.
Suspensions of liposomes were prepared according to the method indicated in example 1.
4T1 tumors were induced on day zero (DO) orthotopically in 60 BALB/c female mice under anesthesia.
A total of 300,000 4T1 tumor cells were slowly injected into the right thoracic breast tissue.
Animals were randomized by tumor size on Day 9 into six groups of ten animals each […]. Homogeneity of tumor sizes between groups was tested by analysis of variance (ANOVA).
The animals of Groups 1, 2 and 3 were treated respectively with Batch H3 (control), Batch G3 and Batch G3 twice a week orally.
Additionally, animals in Groups 2 and 4 were treated with intravenous injections of doxorubicin at 8 mg/kg once weekly for 3 weeks. […] The number of lung metastases was counted using a binocular loupe.

## COc1cccc2c1C(=O)c1c(O)c3c(c(O)c1C2=O)C[C@@](O)(C(=O)CO)C[C@@H]3O[C@H]1C[C@H](N)[C@H](O)[C@H](C)O1 [doxorubicin]
  Effect on lung metastases (in words): did not show significant efficacy
